Laboratory results reported in patent US20080009418A1, “Selective Inhibitors” (Alchemia LTD., priority 2004, published 2008).

Assays:
Human melanocortin (MC5) = biological target: T1, Human melanocortin (MC5) (Homo sapiens, UniProt P33032); experiment: Radioligand binding, human melanocortin MC5 membranes, FlashPlate, [125I]-NDP-αMSH; details: compound at 10 μM; [125I]-NDP-αMSH
T1 construct: purchased Perkin Elmer Biosignal
Outline: (§1)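 Cloned human receptor membranes were coated onto FlashPlate wells and incubated with radioligand and compound (added from a 0.5 mM DMSO daughter plate) for 1 hour at room temperature in the dark. Scintillation counting gave percent inhibition, with DMSO defining total and reference ligand defining non-specific binding.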

Human Melanocortin (MC4) = biological target: T2, Human Melanocortin (MC4) (Homo sapiens, UniProt P32245); experiment: Radioligand binding, human melanocortin MC4 membranes, FlashPlate, [125I]-NDP-αMSH; details: compound at 10 μM; [125I]-NDP-αMSH
T2 construct: purchased Perkin Elmer Biosignal
Outline: as §1

Human neurokinin (NK1) = biological target: T3, Human neurokinin (NK1) (Homo sapiens, UniProt P25103); experiment: Radioligand binding, human neurokinin NK1 membranes, filtration, [125I]-Substance P; details: compound at 10 μM; [125I]-Substance P
T3 construct: purchased Perkin Elmer Biosignal
Outline: (§2)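 Membranes from cloned human receptors were incubated with compound and radioligand for 1 hour at room temperature. Bound ligand was collected on 0.3% PEI-soaked filters, washed with cold 50 mM Tris-HCl pH 7.4, and counted by scintillation. Percent inhibition was computed against DMSO totals and reference-ligand nonspecific wells.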

[1] = biological target: T4, Human melanin-concentrating hormone (MCH1) (Homo sapiens, UniProt Q99705); experiment: Radioligand binding, human melanin-concentrating hormone MCH1 membranes, FlashPlate, [125I]-S36057; details: compound at 10 μM; [125I]-S36057
T4 construct: purchased Perkin Elmer Biosignal
Outline: as §1

Mouse urotensin (mUR2) = biological target: T5, Mouse urotensin (mUR2) (Mus musculus, UniProt Q8VIH9); experiment: Radioligand binding, mouse urotensin mUR2 membranes, FlashPlate, [125I]-Urotensin II; details: compound at 10 μM; [125I]-Urotensin II
T5 construct: purchased Perkin Elmer Biosignal
T5 sequence (Q8VIH9 1-385): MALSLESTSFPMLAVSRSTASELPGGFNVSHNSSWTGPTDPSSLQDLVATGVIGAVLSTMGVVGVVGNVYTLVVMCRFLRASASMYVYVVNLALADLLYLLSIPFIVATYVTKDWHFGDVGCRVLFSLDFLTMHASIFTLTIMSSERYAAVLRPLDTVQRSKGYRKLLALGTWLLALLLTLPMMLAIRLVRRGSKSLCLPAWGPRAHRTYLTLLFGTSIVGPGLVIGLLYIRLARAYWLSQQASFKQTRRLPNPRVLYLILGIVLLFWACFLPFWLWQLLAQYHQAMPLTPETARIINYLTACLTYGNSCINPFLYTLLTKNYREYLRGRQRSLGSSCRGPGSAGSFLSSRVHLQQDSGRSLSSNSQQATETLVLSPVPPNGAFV
Outline: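 Cloned mouse urotensin (mUR2) receptor membranes from Perkin Elmer Biosignal were immobilized in FlashPlate microplates using a proprietary coating. Each well got 19.5 μl buffer, then 0.5 μl of DMSO, reference ligand, or compound. Adding 5 μl of [125I]-Urotensin II, diluted to 5× final concentration in binding buffer, started binding. Plates were sealed with TopSeal-A and incubated 1 hour at room temperature in the dark. Wells were counted for 30 seconds each on a TopCount after a 60-second delay, and percentage inhibition was calculated.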

Human κ-Opioid (KOP) = biological target: T6, Human κ-Opioid (KOP) (Homo sapiens, UniProt P41145); experiment: Radioligand binding, human κ-opioid (KOP) membranes, filtration, [3H]-Diprenorphine; details: compound at 10 μM; [3H]-Diprenorphine
T6 construct: purchased Perkin Elmer Biosignal
Outline: as §2

[2] = biological target: T7, Human neuropeptide Y (NPY-Y1) (Homo sapiens, UniProt P25929); experiment: Radioligand binding, human neuropeptide Y NPY-Y1 membranes, FlashPlate, [125I]-PYY; details: compound at 10 μM; [125I]-PYY
T7 construct: purchased Perkin Elmer Biosignal
T7 sequence (P25929 1-384): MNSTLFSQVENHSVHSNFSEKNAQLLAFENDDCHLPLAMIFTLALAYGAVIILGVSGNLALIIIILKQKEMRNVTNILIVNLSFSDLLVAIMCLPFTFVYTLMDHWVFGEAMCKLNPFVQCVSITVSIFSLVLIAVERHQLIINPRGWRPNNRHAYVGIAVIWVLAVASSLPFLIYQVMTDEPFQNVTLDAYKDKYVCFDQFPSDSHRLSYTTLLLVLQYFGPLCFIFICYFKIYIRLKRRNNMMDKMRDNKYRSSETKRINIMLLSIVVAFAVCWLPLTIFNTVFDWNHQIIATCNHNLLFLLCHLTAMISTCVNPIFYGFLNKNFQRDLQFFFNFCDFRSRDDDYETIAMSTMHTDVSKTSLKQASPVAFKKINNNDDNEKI
Outline: as §1

Human μ-opioid (MOP) = biological target: T8, Human μ-opioid (MOP) (Homo sapiens, UniProt P35372); experiment: Radioligand binding, human μ-opioid (MOP) membranes, FlashPlate, [3H]-Naloxone; details: compound at 10 μM; [3H]-Naloxone
T8 construct: purchased Perkin Elmer Biosignal
Outline: as §1

Human opioid (ORL1) = biological target: T9, Human opioid (ORL1) (Homo sapiens, UniProt P41146); experiment: Radioligand binding, human opioid ORL1 membranes, FlashPlate, [125I]-Nociceptin; details: compound at 10 μM, [125I]-Nociceptin
T9 construct: purchased Perkin Elmer Biosignal
Outline: as §1

Human Melanocortin (MC3) = biological target: T10, Human Melanocortin (MC3) (Homo sapiens, UniProt P41968); experiment: Radioligand binding, human melanocortin MC3 membranes, FlashPlate, [125I]-NDP-αMSH; details: compound at 10 μM; [125I]-NDP-αMSH
T10 construct: purchased Perkin Elmer Biosignal
Outline: as §1

Human δ-opioid (DOP) = biological target: T11, Human δ-opioid (DOP) (Homo sapiens, UniProt P41143); experiment: Radioligand binding, human δ-opioid (DOP) membranes, FlashPlate, [3H]-Bremazocine; details: compound at 10 μM; [3H]-Bremazocine
T11 construct: purchased Perkin Elmer Biosignal
Outline: as §1

T1 sequence (P33032 whole entry): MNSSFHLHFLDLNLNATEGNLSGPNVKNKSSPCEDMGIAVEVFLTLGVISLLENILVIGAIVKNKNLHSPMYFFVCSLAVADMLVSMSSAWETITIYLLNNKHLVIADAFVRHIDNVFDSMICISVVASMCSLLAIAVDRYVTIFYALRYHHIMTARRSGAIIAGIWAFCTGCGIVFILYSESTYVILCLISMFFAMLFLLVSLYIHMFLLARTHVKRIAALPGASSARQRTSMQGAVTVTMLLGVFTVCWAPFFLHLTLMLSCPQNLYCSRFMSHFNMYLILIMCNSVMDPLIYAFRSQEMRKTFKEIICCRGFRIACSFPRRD
T3 sequence (P25103 whole entry): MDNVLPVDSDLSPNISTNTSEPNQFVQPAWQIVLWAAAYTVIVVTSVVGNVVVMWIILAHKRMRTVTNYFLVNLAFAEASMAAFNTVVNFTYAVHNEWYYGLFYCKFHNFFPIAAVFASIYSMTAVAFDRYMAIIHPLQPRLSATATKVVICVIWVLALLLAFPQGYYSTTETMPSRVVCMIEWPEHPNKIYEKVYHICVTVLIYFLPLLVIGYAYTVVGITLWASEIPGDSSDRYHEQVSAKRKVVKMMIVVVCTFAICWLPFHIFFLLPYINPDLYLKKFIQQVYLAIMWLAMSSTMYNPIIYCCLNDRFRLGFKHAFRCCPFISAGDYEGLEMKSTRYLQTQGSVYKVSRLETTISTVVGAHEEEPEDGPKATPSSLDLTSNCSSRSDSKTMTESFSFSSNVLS
T9 sequence (P41146 whole entry): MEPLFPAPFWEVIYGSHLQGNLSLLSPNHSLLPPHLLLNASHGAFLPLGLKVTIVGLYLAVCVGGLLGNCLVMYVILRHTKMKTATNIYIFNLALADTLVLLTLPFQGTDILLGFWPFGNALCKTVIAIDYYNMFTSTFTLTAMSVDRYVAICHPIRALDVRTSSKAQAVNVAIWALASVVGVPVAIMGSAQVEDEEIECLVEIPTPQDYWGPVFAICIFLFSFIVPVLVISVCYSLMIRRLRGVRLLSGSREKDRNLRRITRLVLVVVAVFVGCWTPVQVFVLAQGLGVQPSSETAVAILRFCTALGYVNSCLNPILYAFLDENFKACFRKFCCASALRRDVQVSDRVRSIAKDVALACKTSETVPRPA
T11 sequence (P41143 whole entry): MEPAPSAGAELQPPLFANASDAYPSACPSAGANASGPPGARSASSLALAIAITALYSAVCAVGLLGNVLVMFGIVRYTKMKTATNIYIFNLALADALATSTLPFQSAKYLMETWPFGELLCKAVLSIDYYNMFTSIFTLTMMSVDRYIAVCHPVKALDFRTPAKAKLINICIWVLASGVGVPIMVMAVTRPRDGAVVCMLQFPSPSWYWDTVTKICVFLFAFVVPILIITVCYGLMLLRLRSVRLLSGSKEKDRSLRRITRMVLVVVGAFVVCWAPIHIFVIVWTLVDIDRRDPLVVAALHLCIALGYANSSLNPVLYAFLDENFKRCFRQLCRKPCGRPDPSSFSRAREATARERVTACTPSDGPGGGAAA
T2 sequence (P32245 whole entry): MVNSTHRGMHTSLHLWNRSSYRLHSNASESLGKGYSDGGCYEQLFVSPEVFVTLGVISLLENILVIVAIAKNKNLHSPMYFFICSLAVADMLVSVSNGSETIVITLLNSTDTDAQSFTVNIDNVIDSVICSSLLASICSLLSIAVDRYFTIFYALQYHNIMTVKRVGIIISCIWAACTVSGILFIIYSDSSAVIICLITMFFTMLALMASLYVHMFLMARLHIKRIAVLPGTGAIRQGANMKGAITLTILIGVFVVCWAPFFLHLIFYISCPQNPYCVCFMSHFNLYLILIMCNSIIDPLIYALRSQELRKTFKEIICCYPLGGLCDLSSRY
T10 sequence (P41968 whole entry): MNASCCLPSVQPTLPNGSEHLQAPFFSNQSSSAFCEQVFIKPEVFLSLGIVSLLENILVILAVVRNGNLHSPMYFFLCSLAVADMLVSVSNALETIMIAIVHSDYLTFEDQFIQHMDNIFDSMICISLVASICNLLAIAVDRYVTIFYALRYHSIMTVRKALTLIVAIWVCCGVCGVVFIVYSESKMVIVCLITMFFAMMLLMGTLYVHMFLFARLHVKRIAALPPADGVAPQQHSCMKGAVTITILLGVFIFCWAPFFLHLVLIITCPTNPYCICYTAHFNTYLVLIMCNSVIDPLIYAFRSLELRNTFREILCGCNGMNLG
T4 sequence (Q99705 whole entry): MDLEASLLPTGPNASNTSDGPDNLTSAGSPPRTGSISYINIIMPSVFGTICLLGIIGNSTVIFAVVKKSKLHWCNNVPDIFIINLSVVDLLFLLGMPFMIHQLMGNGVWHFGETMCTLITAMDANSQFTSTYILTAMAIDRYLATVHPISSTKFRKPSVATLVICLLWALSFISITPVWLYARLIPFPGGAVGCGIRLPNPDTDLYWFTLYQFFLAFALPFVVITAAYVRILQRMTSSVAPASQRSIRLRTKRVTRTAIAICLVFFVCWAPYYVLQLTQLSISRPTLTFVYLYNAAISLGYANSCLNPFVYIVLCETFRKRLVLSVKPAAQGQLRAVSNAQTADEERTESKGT
T8 sequence (P35372 whole entry): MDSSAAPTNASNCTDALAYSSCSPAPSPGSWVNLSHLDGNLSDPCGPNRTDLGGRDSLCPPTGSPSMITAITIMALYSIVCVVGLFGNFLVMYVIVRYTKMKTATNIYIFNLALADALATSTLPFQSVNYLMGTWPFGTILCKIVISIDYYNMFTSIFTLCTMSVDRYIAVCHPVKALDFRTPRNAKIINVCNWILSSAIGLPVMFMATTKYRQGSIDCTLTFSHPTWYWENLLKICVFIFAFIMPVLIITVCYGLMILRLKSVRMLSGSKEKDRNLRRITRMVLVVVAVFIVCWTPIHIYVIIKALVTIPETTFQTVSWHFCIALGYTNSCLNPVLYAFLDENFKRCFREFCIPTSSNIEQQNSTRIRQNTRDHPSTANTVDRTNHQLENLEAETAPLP
T6 sequence (P41145 whole entry): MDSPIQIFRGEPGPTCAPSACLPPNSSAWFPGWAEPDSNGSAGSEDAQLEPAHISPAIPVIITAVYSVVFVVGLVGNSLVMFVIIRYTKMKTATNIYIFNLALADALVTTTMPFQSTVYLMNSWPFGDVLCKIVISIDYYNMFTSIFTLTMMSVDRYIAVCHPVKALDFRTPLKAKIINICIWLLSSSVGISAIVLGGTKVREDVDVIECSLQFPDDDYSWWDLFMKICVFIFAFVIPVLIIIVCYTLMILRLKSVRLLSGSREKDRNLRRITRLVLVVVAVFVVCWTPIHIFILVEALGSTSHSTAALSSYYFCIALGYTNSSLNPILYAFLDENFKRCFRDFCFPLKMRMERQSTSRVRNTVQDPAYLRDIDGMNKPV

| Structure (SMILES) | A5: inhibition of radioligand binding, human melanocortin (MC5) (Human melanocortin (MC5)) | A4: inhibition of radioligand binding, human melanocortin (MC4) (Human Melanocortin (MC4)) | A8: inhibition of radioligand binding, human neurokinin (NK1) (Human neurokinin (NK1)) | A6: inhibition of radioligand binding, human melanin-concentrating hormone (MCH1) [1] | A11: inhibition of radioligand binding, mouse urotensin (mUR2) (Mouse urotensin (mUR2)) | A2: inhibition of radioligand binding, human κ-opioid (KOP) (Human κ-Opioid (KOP)) | A9: inhibition of radioligand binding, human neuropeptide Y (NPY-Y1) [2] | A7: inhibition of radioligand binding, human μ-opioid (MOP) (Human μ-opioid (MOP)) | A10: inhibition of radioligand binding, human opioid (ORL1) (Human opioid (ORL1); 10 µM) | A3: inhibition of radioligand binding, human melanocortin (MC3) (Human Melanocortin (MC3)) | A1: inhibition of radioligand binding, human δ-opioid (DOP) (Human δ-opioid (DOP)) | A10: inhibition of radioligand binding, human opioid (ORL1) (Human opioid (ORL1)) |
| --- | --- | --- | --- | --- | --- | --- | --- | --- | --- | --- | --- | --- |
| N=C(N)NCC(=O)N[C@H]1C(OCc2ccc(Cl)cc2)O[C@H](COCc2ccc(Cl)cc2)[C@@H](O)[C@@H]1OCc1ccc2ccccc2c1 (stereo partly drawn) [compound 515] | + (“+” indicates greater than 50% inhibition at 10 μM) | + (“+” indicates greater than 50% inhibition at 10 μM) | + (“+” indicates greater than 50% inhibition at 10 μM) | + (“+” indicates greater than 50% inhibition at 10 μM) | − (“−” indicates less than 50% inhibition at 10 μM) | − (“−” indicates less than 50% inhibition at 10 μM) | − (“−” indicates less than 50% inhibition at 10 μM) | − (“−” indicates less than 50% inhibition at 10 μM) | + (“+” indicates greater than 50% inhibition at 10 μM) | + (“+” indicates greater than 50% inhibition at 10 μM) | − (“−” indicates less than 50% inhibition at 10 μM) |  |
| N=C(N)NCC(=O)N[C@H]1C(OCc2ccc(Cl)cc2)O[C@H](COCc2ccc(Cl)cc2)[C@@H](O)[C@@H]1OCc1ccc2ccccc2c1 (stereo partly drawn) [compound 516] | + (“+” indicates greater than 50% inhibition at 10 μM) | + (“+” indicates greater than 50% inhibition at 10 μM) | + (“+” indicates greater than 50% inhibition at 10 μM) | + (“+” indicates greater than 50% inhibition at 10 μM) | − (“−” indicates less than 50% inhibition at 10 μM) | − (“−” indicates less than 50% inhibition at 10 μM) | − (“−” indicates less than 50% inhibition at 10 μM) | − (“−” indicates less than 50% inhibition at 10 μM) | − (“−” indicates less than 50% inhibition at 10 μM) | + (“+” indicates greater than 50% inhibition at 10 μM) | − (“−” indicates less than 50% inhibition at 10 μM) |  |
| N=C(N)NCC(=O)N[C@H]1C(OCc2ccc(Cl)cc2)O[C@H](COCc2ccc3ccccc3c2)[C@@H](O)[C@@H]1OCc1ccc(-c2ccccc2)cc1 (stereo partly drawn) [compound 517] | + (“+” indicates greater than 50% inhibition at 10 μM) | + (“+” indicates greater than 50% inhibition at 10 μM) | + (“+” indicates greater than 50% inhibition at 10 μM) | + (“+” indicates greater than 50% inhibition at 10 μM) | − (“−” indicates less than 50% inhibition at 10 μM) | + (“+” indicates greater than 50% inhibition at 10 μM) | − (“−” indicates less than 50% inhibition at 10 μM) | − (“−” indicates less than 50% inhibition at 10 μM) |  | + (“+” indicates greater than 50% inhibition at 10 μM) | − (“−” indicates less than 50% inhibition at 10 μM) | − (“−” indicates less than 50% inhibition at 10 μM) |
